Source: ChEMBL document CHEMBL1201862, “PubChem BioAssay data set” (2004)
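How tested: cells in 96-well plates exposed to compound for 48 hours at five concentrations. The concentration for 50% growth inhibition is given as GI50.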 Active and inactive are the calls of the source. No stated cut-off is given here; in the data, active = GI50 up to about 1.1 µM and inactive = higher.

Experiments:
Assay in all cases: NCI tumour cell line growth inhibition, 48 h
MDA-MB-435 = system: MDA-MB-435
SK-MEL-5 = system: SK-MEL-5
NCI-H23 = system: NCI-H23
OVCAR-5 = system: OVCAR-5
SF-268 = system: SF-268
UACC-62 = system: UACC-62
SNB-19 = system: SNB-19
NCI-H460 = system: NCI-H460
LOX IMVI = system: LOX IMVI
HCT-15 = system: HCT-15
RPMI-8226 = system: RPMI-8226
SW-620 = system: SW-620
A498 = system: A498
A549 = system: A549
SF-539 = system: SF-539
CCRF-CEM = system: CCRF-CEM
NCI/ADR-RES = system: NCI/ADR-RES
T47D = system: T47D
HOP-92 = system: HOP-92
SNB-75 = system: SNB-75
786-0 = system: 786-0
EKVX = system: EKVX
MDA-N = system: MDA-N
Malme-3M = system: Malme-3M
ACHN = system: ACHN
MDA-MB-231 = system: MDA-MB-231
OVCAR-8 = system: OVCAR-8
OVCAR-4 = system: OVCAR-4
HOP-62 = system: HOP-62
SK-MEL-28 = system: SK-MEL-28
OVCAR-3 = system: OVCAR-3
M14 = system: M14
NCI-H522 = system: NCI-H522
HT-29 = system: HT-29
U-251 = system: U-251
MOLT-4 = system: MOLT-4
SK-MEL-2 = system: SK-MEL-2
K562 = system: K562
KM12 = system: KM12
SF-295 = system: SF-295
BT-549 = system: BT-549
COLO 205 = system: COLO 205
PC-3 = system: PC-3
HL-60 = system: HL-60
Hs-578T = system: Hs-578T
SK-OV-3 = system: SK-OV-3
SN12C = system: SN12C
UACC-257 = system: UACC-257
IGROV-1 = system: IGROV-1
CAKI-1 = system: CAKI-1
HCT-116 = system: HCT-116
NCI-H226 = system: NCI-H226
SR = system: SR
DU-145 = system: DU-145
TK-10 = system: TK-10
MCF7 = system: MCF7
HCC 2998 = system: HCC 2998
RXF 393 = system: RXF 393
UO-31 = system: UO-31

O=[N+]([O-])c1ccc2c3ccccc3[s+]([O-])c2c1 (stereo not drawn)
GI50 (MDA-MB-435): > 100 µM (inactive)
GI50 (SK-MEL-5): > 100 µM (inactive)
GI50 (NCI-H23): > 100 µM (inactive)
GI50 (OVCAR-5): > 100 µM (inactive)
GI50 (SF-268): > 100 µM (inactive)
GI50 (UACC-62): > 100 µM (inactive)
GI50 (SNB-19): > 100 µM (inactive)
GI50 (NCI-H460): > 100 µM (inactive)
GI50 (LOX IMVI): > 100 µM (inactive)
GI50 (HCT-15): > 100 µM
GI50 (RPMI-8226): > 100 µM (inactive)
GI50 (SW-620): 72.4 µM (inactive)
GI50 (A498): > 100 µM (inactive)
GI50 (A549): > 100 µM (inactive)
GI50 (SF-539): > 100 µM (inactive)
GI50 (CCRF-CEM): > 100 µM (inactive)
GI50 (NCI/ADR-RES): > 100 µM (inactive)
GI50 (T47D): > 100 µM (inactive)
GI50 (HOP-92): > 100 µM (inactive)
GI50 (SNB-75): > 100 µM (inactive)
GI50 (786-0): > 100 µM (inactive)
GI50 (EKVX): 35.2 µM (inactive)
GI50 (MDA-N): > 100 µM (inactive)
GI50 (Malme-3M): 30.5 µM (inactive)
GI50 (ACHN): > 100 µM (inactive)
GI50 (MDA-MB-231): > 100 µM (inactive)
GI50 (OVCAR-8): > 100 µM (inactive)
GI50 (OVCAR-4): > 100 µM (inactive)
GI50 (HOP-62): > 100 µM (inactive)
GI50 (SK-MEL-28): > 100 µM (inactive)
GI50 (OVCAR-3): 33 µM (inactive)
GI50 (M14): > 100 µM (inactive)
GI50 (NCI-H522): > 100 µM (inactive)
GI50 (HT-29): > 100 µM (inactive)
GI50 (U-251): > 100 µM (inactive)
GI50 (MOLT-4): > 100 µM (inactive)
GI50 (SK-MEL-2): > 100 µM (inactive)
GI50 (K562): > 100 µM (inactive)
GI50 (KM12): > 100 µM (inactive)
GI50 (SF-295): > 100 µM (inactive)
GI50 (BT-549): > 100 µM (inactive)
GI50 (COLO 205): 63.7 µM (inactive)
GI50 (PC-3): > 100 µM (inactive)
GI50 (HL-60): 88.5 µM (inactive)
GI50 (Hs-578T): > 100 µM (inactive)
GI50 (SK-OV-3): > 100 µM (inactive)
GI50 (SN12C): > 100 µM (inactive)
GI50 (UACC-257): > 100 µM (inactive)
GI50 (IGROV-1): > 100 µM (inactive)
GI50 (CAKI-1): > 100 µM (inactive)
GI50 (HCT-116): > 100 µM (inactive)
GI50 (NCI-H226): > 100 µM (inactive)
GI50 (SR): > 100 µM (inactive)
GI50 (DU-145): > 100 µM (inactive)
GI50 (TK-10): > 100 µM (inactive)
GI50 (MCF7): 74 µM (inactive)

CC(=O)Nc1ccccc1C=C1c2ccccc2-c2ccccc21
GI50 (MDA-MB-435): > 100 µM (inactive)
GI50 (SK-MEL-5): 57.3 µM (inactive)
GI50 (NCI-H23): 25.2 µM (inactive)
GI50 (OVCAR-5): 35.9 µM (inactive)
GI50 (SF-268): > 100 µM (inactive)
GI50 (UACC-62): 41.7 µM (inactive)
GI50 (HCC 2998): 84.9 µM (inactive)
GI50 (SNB-19): 17.8 µM (inactive)
GI50 (NCI-H460): 34.7 µM (inactive)
GI50 (LOX IMVI): > 100 µM (inactive)
GI50 (HCT-15): 45.8 µM
GI50 (RXF 393): 20.8 µM (inactive)
GI50 (RPMI-8226): 50.2 µM (inactive)
GI50 (SW-620): > 100 µM (inactive)
GI50 (A498): 36.3 µM (inactive)
GI50 (A549): 24.1 µM (inactive)
GI50 (SF-539): 13.2 µM (inactive)
GI50 (CCRF-CEM): 48 µM (inactive)
GI50 (NCI/ADR-RES): 18.7 µM (inactive)
GI50 (T47D): 30.4 µM (inactive)
GI50 (SNB-75): 17.9 µM (inactive)
GI50 (786-0): 19.9 µM (inactive)
GI50 (EKVX): 38.8 µM (inactive)
GI50 (MDA-N): > 100 µM (inactive)
GI50 (Malme-3M): > 100 µM (inactive)
GI50 (ACHN): 42.7 µM (inactive)
GI50 (MDA-MB-231): 17.7 µM (inactive)
GI50 (OVCAR-8): 21.7 µM (inactive)
GI50 (OVCAR-4): 27.9 µM (inactive)
GI50 (HOP-62): 19.5 µM (inactive)
GI50 (SK-MEL-28): > 100 µM (inactive)
GI50 (OVCAR-3): 25.1 µM (inactive)
GI50 (M14): 36.7 µM (inactive)
GI50 (NCI-H522): 20.2 µM (inactive)
GI50 (HT-29): > 100 µM (inactive)
GI50 (U-251): 23.2 µM (inactive)
GI50 (MOLT-4): 77.1 µM (inactive)
GI50 (SK-MEL-2): 34 µM (inactive)
GI50 (K562): 51.9 µM (inactive)
GI50 (KM12): > 100 µM (inactive)
GI50 (SF-295): 20.9 µM (inactive)
GI50 (BT-549): 24.8 µM (inactive)
GI50 (COLO 205): 78.2 µM (inactive)
GI50 (PC-3): 41.8 µM (inactive)
GI50 (HL-60): > 100 µM (inactive)
GI50 (Hs-578T): > 100 µM (inactive)
GI50 (SN12C): 19.1 µM (inactive)
GI50 (UACC-257): 56.8 µM (inactive)
GI50 (IGROV-1): 33 µM (inactive)
GI50 (CAKI-1): 63 µM (inactive)
GI50 (HCT-116): 29.7 µM (inactive)
GI50 (NCI-H226): 28 µM (inactive)
GI50 (SR): 98.9 µM (inactive)
GI50 (DU-145): 33.2 µM (inactive)
GI50 (TK-10): 31.3 µM (inactive)
GI50 (UO-31): 16.2 µM (inactive)
GI50 (MCF7): 20.9 µM (inactive)
